Read-outs that look alike come from different tables or passages of the source. Where a SMILES comes first, the peptide text is derived from it. Bridges are numbered along the chain shown (N, C = ends). [ ]: non-standard residue; d: D form. The star is where a group is joined. DOTA = O=C(O)CN1CCN(CC(=O)O)CCN(CC(=O)*)CCN(CC(=O)O)CC1; Tyr(3-Cl) = N[C@@H](Cc1ccc(O)c(Cl)c1)C(=O)O; Pro(cis-4-F) = O=C(O)[C@@H]1C[C@H](F)CN1; Pro(4R-NH2) = N[C@H]1CN[C@H](C(=O)O)C1; NMeY = CN[C@@H](Cc1ccc(O)cc1)C(=O)O; Hyp = O=C(O)[C@@H]1C[C@@H](O)CN1; tBuAla = CC(C)(C)C[C@H](N)C(=O)O; 3Pal = N[C@@H](Cc1cccnc1)C(=O)O; Pentanoyl(4-Me) = CC(C)CCC(=O)*; 2Thi = N[C@@H](Cc1cccs1)C(=O)O; Cha = N[C@@H](CC1CCCCC1)C(=O)O; Cit = NC(=O)NCCC[C@H](N)C(=O)O; NMeL = CN[C@@H](CC(C)C)C(=O)O; Butoxycarbonyl = CCCCOC(=O)*; Pen = CC(C)(S)[C@H](N)C(=O)O; Octanoyl = CCCCCCCC(=O)*; Aze = O=C(O)[C@@H]1CCN1; Nva = CCC[C@H](N)C(=O)O; Pentanoyl = CCCCC(=O)*; AEEA = NCCOCCOCC(=O)O; Ahx = NCCCCCC(=O)O
How the values were obtained:
[1] = molecular target: T1, uPAR-expressing HEC-265 human endometrial adenocarcinoma cells (Homo sapiens, UniProt Q03405); assay: Competitive FACS binding assay; details: pIC50 category of FACS binding
T1 construct: Cell surface uPAR-expressing HEC-265 human endometrial adenocarcinoma cells; host or cells: HEC-265
T1 sequence (Q03405 23-335): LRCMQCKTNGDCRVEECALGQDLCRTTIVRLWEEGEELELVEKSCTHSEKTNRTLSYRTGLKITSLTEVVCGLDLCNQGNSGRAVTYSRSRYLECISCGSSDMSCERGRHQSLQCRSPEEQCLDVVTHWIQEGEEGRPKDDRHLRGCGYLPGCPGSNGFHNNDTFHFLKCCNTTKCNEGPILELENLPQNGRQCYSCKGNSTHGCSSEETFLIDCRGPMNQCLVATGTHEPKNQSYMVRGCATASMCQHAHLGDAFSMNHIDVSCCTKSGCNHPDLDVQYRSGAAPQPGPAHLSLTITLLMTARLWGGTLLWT
Procedure, shortened: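 HEC-265 cells incubated 1 h at 4 °C with 10 nM biotinylated uPAR peptide tracer plus increasing test compound, then stained with APC-streptavidin on ice. Median APC fluorescence by flow cytometry; 4PL fit gives pIC50.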

human uPAR (uPAR-Fc) = molecular target: T2, human uPAR (uPAR-Fc) (Homo sapiens, UniProt Q03405); assay: Surface plasmon resonance (SPR) assay, single cycle kinetics; type: binding; details: pKD category for uPAR SPR activity assay, uPAR-Fc on Protein A-Chip, 25°C, read-out: pKD CAT (converted)
T2 construct: comprising amino acids Leu23-Arg303 according to UniProt entry Q03405.1; purchased R&D Systems 10378-UK-100
T2 sequence (Q03405 23-303): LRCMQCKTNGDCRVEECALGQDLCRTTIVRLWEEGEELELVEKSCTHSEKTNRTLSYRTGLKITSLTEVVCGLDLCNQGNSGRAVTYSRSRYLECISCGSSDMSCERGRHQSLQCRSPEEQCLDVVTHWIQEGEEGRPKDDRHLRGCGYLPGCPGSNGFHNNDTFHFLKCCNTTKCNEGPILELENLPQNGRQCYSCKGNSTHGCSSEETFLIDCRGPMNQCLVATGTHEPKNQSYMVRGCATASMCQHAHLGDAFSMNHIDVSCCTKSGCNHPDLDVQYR
Procedure, shortened: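 uPAR-Fc (Leu23-Arg303 extracellular domains, human IgG1 Fc) captured on Protein A chip to ~2000 RU; single-cycle kinetics at 25°C in HEPES running buffer pH 7.4 with 0.1% DMSO. KD from double-referenced sensorgrams fitted to 1:1 Langmuir model, reported as pKD.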

Row | SMILES | IC50 [1] [nM] | Kd (human uPAR (uPAR-Fc)) [nM] | Kd (human uPAR (uPAR-Fc); single cycle kinetics) [nM]
1 | CC[C@H](C)[C@@H]1NC(=O)[C@@H](C)NC(=O)[C@@H]2CCCN2C(=O)[C@H](Cc2ccccc2)NC(=O)[C@H](Cc2ccc(O)cc2)NC(=O)[C@H](CCC(=O)O)NC(=O)[C@H](CCCNC(N)=O)NC(=O)[C@@H](NC(=O)CCC(C)C)CSSC[C@@H](C(N)=O)NC(=O)[C@H](CC(C)C)NC1=O [UPAR-255, iHex-[Cys-Cit-Glu-Tyr-Phe-Pro-ala-Ile-Leu-Cys]-NH2] ({Pentanoyl(4-Me)}-C[Cit]EYFP[dA]ILC-NH2; disulfide 1-10) | ≤ 10 | < 1.58 | 
2 | CCCCC(=O)N[C@H]1CSSC[C@@H](C(N)=O)NC(=O)[C@H](CCC)NC(=O)[C@H]([C@@H](C)CC)NC(=O)[C@H](CO)NC(=O)[C@@H]2CCCN2C(=O)[C@H](Cc2ccccc2)NC(=O)[C@H](Cc2ccc(O)cc2)NC(=O)[C@H](CCC(N)=O)NC(=O)[C@H](CCCNC(=N)N)NC1=O [UPAR-154, Pent-[Cys-Arg-Gln-Tyr-Phe-Pro-Ser-Ile-Nva-Cys]-NH2] (Pentanoyl-CRQYFPSI[Nva]C-NH2; disulfide 1-10) | ≤ 10 | < 1.58 | 
3 | CCCCC(=O)N[C@H]1CSSC[C@@H](C(N)=O)NC(=O)[C@H](CC(C)C)N(C)C(=O)[C@H]([C@@H](C)CC)NC(=O)[C@@H]2C[C@@H](O)CN2C(=O)[C@@H]2CCCN2C(=O)[C@H](Cc2ccccc2)NC(=O)[C@H](Cc2ccc(O)cc2)NC(=O)[C@H](CCC(N)=O)NC(=O)[C@H](CCCNC(=N)N)NC1=O [UPAR-480, Pent-[Cys-Arg-Gln-Tyr-Phe-Pro-Hyp-Ile-Nml-Cys]-NH2] (Pentanoyl-CRQYFP[Hyp]I[NMeL]C-NH2; disulfide 1-10) | ≥ 126 |  | > 100
4 | CC[C@H](C)[C@@H]1NC(=O)[C@@H](C)NC(=O)[C@@H]2CCN2C(=O)[C@H](Cc2ccccc2)NC(=O)[C@H](Cc2ccc(O)cc2)NC(=O)[C@H](CCC(N)=O)NC(=O)[C@H](CCCNC(N)=O)NC(=O)[C@@H](NC(=O)CCC(C)C)CSSC[C@@H](C(N)=O)NC(=O)[C@H](CC(C)C)NC1=O [UPAR-426, iHex-[Cys-Cit-Gln-Tyr-Phe-Aze-ala-Ile-Leu-Cys]-NH2] ({Pentanoyl(4-Me)}-C[Cit]QYF[Aze][dA]ILC-NH2; disulfide 1-10) | ≤ 10 |  | 1.58 to 10
5 | CCCCC(=O)N[C@H]1CSSC(C)(C)[C@@H](C(N)=O)NC(=O)[C@H](CCC)NC(=O)[C@H]([C@@H](C)CC)NC(=O)[C@@H]2C[C@@H](O)CN2C(=O)[C@@H]2CCCN2C(=O)[C@H](Cc2ccccc2)NC(=O)[C@H](Cc2ccc(O)cc2)NC(=O)[C@H](CCC(N)=O)NC(=O)[C@H](CCCNC(N)=O)NC1=O [UPAR-217, Pent-[Cys-Cit-Gln-Tyr-Phe-Pro-Hyp-Ile-Nva-Pen]-NH2] (Pentanoyl-C[Cit]QYFP[Hyp]I[Nva][Pen]-NH2; disulfide 1-10) | ≤ 10 | 1.58 to 10 | 
6 | CC[C@H](C)[C@@H]1NC(=O)[C@@H](C)NC(=O)[C@@H]2CCCN2C(=O)[C@H](Cc2ccccc2)NC(=O)[C@H](Cc2ccc(O)cc2)N(C)C(=O)[C@H](CCC(N)=O)NC(=O)[C@H](CCCNC(N)=O)NC(=O)[C@@H](NC(=O)CCC(C)C)CSSC[C@@H](C(N)=O)NC(=O)[C@H](CC(C)C)NC1=O [UPAR-285, iHex-[Cys-Cit-Gln-Nmy-Phe-Pro-ala-Ile-Leu-Cys]-NH2] ({Pentanoyl(4-Me)}-C[Cit]Q[NMeY]FP[dA]ILC-NH2; disulfide 1-10) | ≥ 126 | > 100 | 
7 | CCCCOC(=O)N[C@H]1CSSC[C@@H](C(N)=O)NC(=O)[C@H](CCC)NC(=O)[C@H]([C@@H](C)CC)NC(=O)[C@@H]2C[C@@H](O)CN2C(=O)[C@@H]2CCCN2C(=O)[C@H](Cc2cccs2)NC(=O)[C@H](Cc2ccc(O)cc2)NC(=O)[C@H](CCCCNC(=O)CN2CCN(CC(=O)O)CCN(CC(=O)O)CCN(CC(=O)O)CC2)NC(=O)[C@H]([C@@H](C)O)NC1=O [UPAR-134, Butoc-[Cys-Thr-Lys(DOTA)-Tyr-Thi-Pro-Hyp-Ile-Nva-Cys]-NH2] (Butoxycarbonyl-CTK(DOTA)Y[2Thi]P[Hyp]I[Nva]C-NH2; disulfide 1-10) | ≤ 10 | < 1.58 | 
8 | CC[C@H](C)[C@@H]1NC(=O)[C@@H](C)NC(=O)[C@@H]2CCCN2C(=O)[C@H](Cc2ccccc2)NC(=O)[C@H](Cc2ccc(O)c(Cl)c2)NC(=O)[C@H](CCC(N)=O)NC(=O)[C@H](CCCNC(N)=O)NC(=O)[C@@H](NC(=O)CCC(C)C)CSSC[C@@H](C(N)=O)NC(=O)[C@H](CC(C)C)NC1=O [UPAR-188, iHex-[Cys-Cit-Gln-Mcy-Phe-Pro-ala-Ile-Leu-Cys]-NH2] ({Pentanoyl(4-Me)}-C[Cit]Q[Tyr(3-Cl)]FP[dA]ILC-NH2; disulfide 1-10) | ≤ 10 | < 1.58 | 
9 | CC[C@H](C)[C@@H]1NC(=O)[C@@H](C)NC(=O)[C@@H]2C[C@@H](O)CN2C(=O)[C@H](Cc2ccccc2)NC(=O)[C@H](Cc2ccc(O)cc2)NC(=O)[C@H](CCC(N)=O)NC(=O)[C@H](CCCNC(N)=O)NC(=O)[C@@H](NC(=O)CCC(C)C)CSSC[C@@H](C(N)=O)NC(=O)[C@H](CC(C)C)NC1=O [UPAR-439, iHex-[Cys-Cit-Gln-Tyr-Phe-Hyp-ala-Ile-Leu-Cys]-NH2] ({Pentanoyl(4-Me)}-C[Cit]QYF[Hyp][dA]ILC-NH2; disulfide 1-10) | ≤ 10 |  | 1.58 to 10
10 | CC[C@H](C)[C@@H]1NC(=O)[C@@H]2C[C@@H](N)CN2C(=O)[C@@H]2CCCN2C(=O)[C@H](Cc2ccccc2)NC(=O)[C@H](Cc2ccc(O)cc2)NC(=O)[C@H](CCC(N)=O)NC(=O)[C@H](CCCNC(N)=O)NC(=O)[C@@H](NC(=O)CCC(C)C)CSSC[C@@H](C(N)=O)NC(=O)[C@H](CC(C)C)NC1=O [UPAR-295, iHex-[Cys-Cit-Gln-Tyr-Phe-Pro-Tap-Ile-Leu-Cys]-NH2] ({Pentanoyl(4-Me)}-C[Cit]QYFP[Pro(4R-NH2)]ILC-NH2; disulfide 1-10) | ≤ 10 | < 1.58 | 
11 | CCCCCCCC(=O)N[C@H]1CSSC[C@@H](C(N)=O)NC(=O)[C@H](CCC)NC(=O)[C@H]([C@@H](C)CC)NC(=O)[C@@H]2C[C@@H](O)CN2C(=O)[C@@H]2CCCN2C(=O)[C@H](Cc2ccccc2)NC(=O)[C@H](Cc2ccc(O)cc2)NC(=O)[C@H](CCC(N)=O)NC(=O)[C@H](CCCNC(=N)N)NC1=O [UPAR-193, Oct-[Cys-Arg-Gln-Tyr-Phe-Pro-Hyp-Ile-Nva-Cys]-NH2] (Octanoyl-CRQYFP[Hyp]I[Nva]C-NH2; disulfide 1-10) | ≤ 10 | < 1.58 | 
12 | CCCCC(=O)N[C@H]1CSSC[C@@H](C(N)=O)NC(=O)[C@H](CCC)NC(=O)[C@H](CC(C)(C)C)NC(=O)[C@@H]2C[C@@H](O)CN2C(=O)[C@@H]2CCCN2C(=O)[C@H](Cc2ccccc2)NC(=O)[C@H](Cc2ccc(O)cc2)NC(=O)[C@H](CCC(N)=O)NC(=O)[C@H](CCCNC(=N)N)NC1=O [UPAR-370, Pent-[Cys-Arg-Gln-Tyr-Phe-Pro-Hyp-Npg-Nva-Cys]-NH2] (Pentanoyl-CRQYFP[Hyp][tBuAla][Nva]C-NH2; disulfide 1-10) | ≤ 10 |  | < 1.58
13 | CCCCOC(=O)N[C@H]1CSSC[C@@H](C(N)=O)NC(=O)[C@H](CCC)NC(=O)[C@H]([C@@H](C)CC)NC(=O)[C@@H]2C[C@@H](O)CN2C(=O)[C@@H]2C[C@H](F)CN2C(=O)[C@H](Cc2ccccc2)NC(=O)[C@H](Cc2cccnc2)NC(=O)[C@H](CCCCNC(=O)CN2CCN(CC(=O)O)CCN(CC(=O)O)CCN(CC(=O)O)CC2)NC(=O)[C@H]([C@@H](C)O)NC1=O [UPAR-165, Butoc-[Cys-Thr-Lys(DOTA)-Mpa-Phe-4Cfp-Hyp-Ile-Nva-Cys]-NH2] (Butoxycarbonyl-CTK(DOTA)[3Pal]F[Pro(cis-4-F)][Hyp]I[Nva]C-NH2; disulfide 1-10) | ≤ 10 | < 1.58 | 
14 | CC[C@H](C)[C@@H]1NC(=O)[C@@H](C)NC(=O)[C@@H]2CCCN2C(=O)[C@H](Cc2ccccc2)NC(=O)[C@H](Cc2ccc(O)cc2)NC(=O)[C@H](CCC(N)=O)NC(=O)[C@H](CCCNC(=N)N)NC(=O)[C@@H](NC(=O)[C@H](CC(C)C)NC(=O)CCCCCNC(=O)CN2CCN(CC(=O)O)CCN(CC(=O)O)CCN(CC(=O)O)CC2)CSSC[C@@H](C(N)=O)NC(=O)[C@H](CC(C)C)NC1=O [UPAR-291, DOTA-Ahx-Leu-[Cys-Arg-Gln-Tyr-Phe-Pro-ala-Ile-Leu-Cys]-NH2] ({DOTA-Ahx}-LCRQYFP[dA]ILC-NH2; disulfide 2-11) | ≤ 10 | < 1.58 | 
15 | CC[C@H](C)[C@@H]1NC(=O)[C@@H](C)NC(=O)[C@@H]2CCCN2C(=O)[C@H](Cc2ccccc2)NC(=O)[C@H](Cc2ccc(O)cc2)NC(=O)[C@H](CCC(N)=O)NC(=O)[C@H](CCCNC(=N)N)NC(=O)[C@@H](NC(=O)CCC(C)C)CSSC[C@@H](C(=O)NCCOCCOCC(=O)N[C@@H](CCCCNC(=O)CN2CCN(CC(=O)O)CCN(CC(=O)O)CCN(CC(=O)O)CC2)C(N)=O)NC(=O)[C@H](CC(C)C)NC1=O [UPAR-449, iHex-[Cys-Arg-Gln-Tyr-Phe-Pro-ala-Ile-Leu-Cys]-O2Oc-Lys(DOTA)-NH2] ({Pentanoyl(4-Me)}-CRQYFP[dA]ILC[AEEA]K(DOTA)-NH2; disulfide 1-10) | ≥ 126 |  | 1.58 to 10
16 | CC[C@H](C)[C@@H]1NC(=O)[C@@H](C)NC(=O)[C@@H]2CCCN2C(=O)[C@H](Cc2ccccc2)NC(=O)[C@H](Cc2ccc(O)cc2)NC(=O)[C@H](CCC(N)=O)NC(=O)[C@H](CCCNC(N)=O)NC(=O)[C@@H](NC(=O)CCC(C)C)CSSC[C@@H](C(N)=O)NC(=O)[C@H](CC2CCCCC2)NC1=O [UPAR-474, iHex-[Cys-Cit-Gln-Tyr-Phe-Pro-ala-Ile-Cha-Cys]-NH2] ({Pentanoyl(4-Me)}-C[Cit]QYFP[dA]I[Cha]C-NH2; disulfide 1-10) | ≥ 126 |  | > 100

From patent EP4610269A1, “UROKINASE PLASMINOGEN ACTIVATOR SURFACE RECEPTOR (UPAR) LIGANDS FOR DIAGNOSTIC OR THERAPEUTIC USE” (3B Pharmaceuticals GmbH, priority 2024, dated 2025)
